Measurements as given in ChEMBL document CHEMBL4330132, “5-Keto-3-cyano-2,4-diaminothiophenes as selective maternal embryonic leucine zipper kinase inhibitors” (Bioorg Med Chem Lett, 2019).

Tests used:
[1] = molecular target: Atypical kinase COQ8A, mitochondrial (Homo sapiens) (UniProt Q8NI60); test: Binding affinity to wild-type human full length ADCK3 (M280 to Q647 residues) expressed in bacterial expression system assessed as residual binding level at 1 uM by Kinomescan method relative to control
[2] = molecular target: Atypical kinase COQ8B, mitochondrial (Homo sapiens) (UniProt Q96D53); test: Binding affinity to wild-type human full length ADCK4 (M1 to S544 residues) expressed in bacterial expression system assessed as residual binding level at 1 uM by Kinomescan method relative to control
Sequence of Atypical kinase COQ8B, mitochondrial (Homo sapiens) (Q96D53 whole entry, the tested form may be a part): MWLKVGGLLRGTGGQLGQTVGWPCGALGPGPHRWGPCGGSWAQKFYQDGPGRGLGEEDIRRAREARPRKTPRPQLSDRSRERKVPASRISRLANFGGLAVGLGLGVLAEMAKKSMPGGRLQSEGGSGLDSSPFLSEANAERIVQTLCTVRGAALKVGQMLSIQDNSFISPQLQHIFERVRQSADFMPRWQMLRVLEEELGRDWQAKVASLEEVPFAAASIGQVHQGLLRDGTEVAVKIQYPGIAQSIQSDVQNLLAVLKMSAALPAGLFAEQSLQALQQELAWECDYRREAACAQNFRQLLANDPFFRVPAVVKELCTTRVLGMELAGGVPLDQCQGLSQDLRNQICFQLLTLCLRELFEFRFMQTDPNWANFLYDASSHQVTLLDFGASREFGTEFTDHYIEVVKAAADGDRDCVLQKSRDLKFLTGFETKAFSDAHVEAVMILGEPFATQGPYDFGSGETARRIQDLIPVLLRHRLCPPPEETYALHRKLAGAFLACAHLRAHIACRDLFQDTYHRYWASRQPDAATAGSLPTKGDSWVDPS

[3] = molecular target: Serine/threonine-protein kinase BRSK1 (Homo sapiens) (UniProt Q8TDC3); test: Binding affinity to wild-type human partial length BRSK1 (M1 to E754 residues) expressed in bacterial expression system assessed as residual binding level at 1 uM by Kinomescan method relative to control
[4] = molecular target: Calcium/calmodulin-dependent protein kinase type II subunit delta (Homo sapiens) (UniProt Q13557); test: Binding affinity to wild-type human partial length CAMK2D (M1 to E329 residues) expressed in bacterial expression system assessed as residual binding level at 1 uM by Kinomescan method relative to control
[5] = molecular target: Dual specificity protein kinase CLK4 (Homo sapiens) (UniProt Q9HAZ1); test: Binding affinity to wild-type human partial length CLK4 (R135 to K481 residues) expressed in bacterial expression system assessed as residual binding level at 1 uM by Kinomescan method relative to control
[6] = molecular target: Death-associated protein kinase 1 (Homo sapiens) (UniProt P53355); test: Binding affinity to wild-type human partial length DAPK1 (M1 to F296 residues) expressed in bacterial expression system assessed as residual binding level at 1 uM by Kinomescan method relative to control
[7] = molecular target: Receptor tyrosine-protein kinase erbB-2 (Homo sapiens) (UniProt P04626); test: Binding affinity to wild-type human partial length ERBB2 (K646 to V1225 residues) expressed in mammalian expression system assessed as residual binding level at 1 uM by Kinomescan method relative to control
[8] = molecular target: Mitogen-activated protein kinase 6 (Homo sapiens) (UniProt Q16659); test: Binding affinity to wild-type human partial length ERK3 (M1 to P413 residues) expressed in bacterial expression system assessed as residual binding level at 1 uM by Kinomescan method relative to control
[9] = molecular target: Mitogen-activated protein kinase 7 (Homo sapiens) (UniProt Q13164); test: Binding affinity to wild-type human partial length ERK5 (M1 to A409 residues) expressed in bacterial expression system assessed as residual binding level at 1 uM by Kinomescan method relative to control
[10] = molecular target: Mitogen-activated protein kinase kinase kinase kinase 1 (Homo sapiens) (UniProt Q92918); test: Binding affinity to wild-type human full length HPK1 (M1 to R799 residues) expressed in bacterial expression system assessed as residual binding level at 1 uM by Kinomescan method relative to control
Sequence of Mitogen-activated protein kinase kinase kinase kinase 1 (Homo sapiens) (Q92918 whole entry, looked up, the tested form may be a part): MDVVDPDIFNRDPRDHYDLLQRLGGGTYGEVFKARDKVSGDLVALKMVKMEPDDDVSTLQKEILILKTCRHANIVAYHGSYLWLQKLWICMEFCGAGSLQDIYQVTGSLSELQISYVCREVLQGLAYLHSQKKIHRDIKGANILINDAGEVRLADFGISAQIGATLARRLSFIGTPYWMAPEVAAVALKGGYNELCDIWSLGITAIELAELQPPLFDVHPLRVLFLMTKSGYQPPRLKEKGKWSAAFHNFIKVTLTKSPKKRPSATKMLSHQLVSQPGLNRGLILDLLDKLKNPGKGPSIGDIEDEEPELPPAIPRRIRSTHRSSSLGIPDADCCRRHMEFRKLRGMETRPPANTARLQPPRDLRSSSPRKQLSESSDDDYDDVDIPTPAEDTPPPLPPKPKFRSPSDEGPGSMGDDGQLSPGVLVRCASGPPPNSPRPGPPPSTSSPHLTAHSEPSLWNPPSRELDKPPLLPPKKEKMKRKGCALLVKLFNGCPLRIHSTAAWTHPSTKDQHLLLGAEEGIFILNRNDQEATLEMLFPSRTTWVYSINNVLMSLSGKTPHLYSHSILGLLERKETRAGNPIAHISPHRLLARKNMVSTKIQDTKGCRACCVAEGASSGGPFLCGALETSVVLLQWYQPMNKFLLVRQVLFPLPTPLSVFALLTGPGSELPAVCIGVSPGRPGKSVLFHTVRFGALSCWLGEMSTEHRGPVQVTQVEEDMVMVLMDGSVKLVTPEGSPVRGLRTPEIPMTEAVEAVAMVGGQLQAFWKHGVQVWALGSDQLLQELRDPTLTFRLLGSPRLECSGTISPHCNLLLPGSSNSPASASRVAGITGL

[11] = molecular target: Interleukin-1 receptor-associated kinase 3 (Homo sapiens) (UniProt Q9Y616); test: Binding affinity to wild-type human partial length IRAK3 (V147 to E596 residues) expressed in bacterial expression system assessed as residual binding level at 1 uM by Kinomescan method relative to control
[12] = molecular target: Tyrosine-protein kinase JAK1 (Homo sapiens) (UniProt P23458); test: Binding affinity to wild-type human partial length JAK1 JH1 catalytic domain (V856 to K1154 residues) expressed in bacterial expression system assessed as residual binding level at 1 uM by Kinomescan method relative to control
Sequence of Tyrosine-protein kinase JAK1 (Homo sapiens) (P23458 whole entry, the tested form may be a part): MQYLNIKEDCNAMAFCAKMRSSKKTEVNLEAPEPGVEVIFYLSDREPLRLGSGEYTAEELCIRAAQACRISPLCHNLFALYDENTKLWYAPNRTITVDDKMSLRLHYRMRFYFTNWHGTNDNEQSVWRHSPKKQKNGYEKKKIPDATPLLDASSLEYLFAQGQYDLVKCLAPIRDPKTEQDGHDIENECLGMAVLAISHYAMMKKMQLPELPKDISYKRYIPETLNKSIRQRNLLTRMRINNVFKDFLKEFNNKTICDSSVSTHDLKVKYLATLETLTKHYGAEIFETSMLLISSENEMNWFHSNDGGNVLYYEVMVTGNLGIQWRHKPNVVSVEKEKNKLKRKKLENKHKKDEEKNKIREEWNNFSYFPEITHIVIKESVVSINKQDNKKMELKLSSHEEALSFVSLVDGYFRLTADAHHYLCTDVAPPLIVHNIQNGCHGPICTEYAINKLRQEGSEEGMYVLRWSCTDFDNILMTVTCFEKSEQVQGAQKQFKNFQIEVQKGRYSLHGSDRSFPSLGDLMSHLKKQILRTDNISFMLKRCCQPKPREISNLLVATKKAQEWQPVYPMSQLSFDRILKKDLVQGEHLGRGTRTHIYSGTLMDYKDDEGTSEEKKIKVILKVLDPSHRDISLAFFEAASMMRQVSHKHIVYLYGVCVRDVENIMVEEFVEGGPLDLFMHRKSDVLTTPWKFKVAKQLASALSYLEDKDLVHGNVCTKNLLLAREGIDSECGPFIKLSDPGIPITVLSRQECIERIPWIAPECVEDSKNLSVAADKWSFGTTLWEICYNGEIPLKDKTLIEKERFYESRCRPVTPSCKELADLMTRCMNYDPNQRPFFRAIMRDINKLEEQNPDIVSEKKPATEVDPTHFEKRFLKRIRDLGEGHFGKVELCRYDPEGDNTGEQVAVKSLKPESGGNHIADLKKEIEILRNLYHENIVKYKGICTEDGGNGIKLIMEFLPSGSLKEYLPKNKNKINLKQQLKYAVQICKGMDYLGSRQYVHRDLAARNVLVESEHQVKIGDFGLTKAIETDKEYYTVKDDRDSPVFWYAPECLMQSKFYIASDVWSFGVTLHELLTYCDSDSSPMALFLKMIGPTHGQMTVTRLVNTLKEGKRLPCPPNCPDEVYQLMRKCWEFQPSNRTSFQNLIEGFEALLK

[13] = tested on: Mast/stem cell growth factor receptor Kit (Homo sapiens), P10721 [V559D,T670I]; test: Binding affinity to human partial length KIT V559D/T670I double mutant (Y545 to D952 residues) expressed in bacterial expression system assessed as residual binding level at 1 uM by Kinomescan method relative to control
[14] = molecular target: MAP/microtubule affinity-regulating kinase 4 (Homo sapiens) (UniProt Q96L34); test: Binding affinity to wild-type human partial length MARK4 (K29 to G340 residues) expressed in bacterial expression system assessed as residual binding level at 1 uM by Kinomescan method relative to control
[15] = tested on: Hepatocyte growth factor receptor (Homo sapiens), P08581 [Y1235D]; test: Binding affinity to human partial length MET Y1235D mutant (D1010 to S1367 residues) expressed in bacterial expression system assessed as residual binding level at 1 uM by Kinomescan method relative to control
[16] = molecular target: MAP kinase-interacting serine/threonine-protein kinase 2 (Homo sapiens) (UniProt Q9HBH9); test: Binding affinity to wild-type human partial length MKNK2 (G63 to S388 residues) expressed in mammalian expression system assessed as residual binding level at 1 uM by Kinomescan method relative to control
[17] = molecular target: Mitogen-activated protein kinase kinase kinase 9 (Homo sapiens) (UniProt P80192); test: Binding affinity to wild-type human partial length MLK1 (V88 to W426 residues) expressed in bacterial expression system assessed as residual binding level at 1 uM by Kinomescan method relative to control
[18] = molecular target: Muscle, skeletal receptor tyrosine-protein kinase (Homo sapiens) (UniProt O15146); test: Binding affinity to wild-type human partial length MUSK (M553 to V869 residues) expressed in bacterial expression system assessed as residual binding level at 1 uM by Kinomescan method relative to control
[19] = tested on: Phosphatidylinositol 4,5-bisphosphate 3-kinase catalytic subunit alpha isoform (Homo sapiens), P42336 [H1047Y]; test: Binding affinity to human partial length PIK3CA H1047Y mutant (R108 to N1068 residues) expressed in mammalian expression system assessed as residual binding level at 1 uM by Kinomescan method relative to control
Sequence of Phosphatidylinositol 4,5-bisphosphate 3-kinase catalytic subunit alpha isoform (Homo sapiens), P42336 [H1047Y] (P42336 whole entry H1047Y, the tested form may be a part, canonical isoform): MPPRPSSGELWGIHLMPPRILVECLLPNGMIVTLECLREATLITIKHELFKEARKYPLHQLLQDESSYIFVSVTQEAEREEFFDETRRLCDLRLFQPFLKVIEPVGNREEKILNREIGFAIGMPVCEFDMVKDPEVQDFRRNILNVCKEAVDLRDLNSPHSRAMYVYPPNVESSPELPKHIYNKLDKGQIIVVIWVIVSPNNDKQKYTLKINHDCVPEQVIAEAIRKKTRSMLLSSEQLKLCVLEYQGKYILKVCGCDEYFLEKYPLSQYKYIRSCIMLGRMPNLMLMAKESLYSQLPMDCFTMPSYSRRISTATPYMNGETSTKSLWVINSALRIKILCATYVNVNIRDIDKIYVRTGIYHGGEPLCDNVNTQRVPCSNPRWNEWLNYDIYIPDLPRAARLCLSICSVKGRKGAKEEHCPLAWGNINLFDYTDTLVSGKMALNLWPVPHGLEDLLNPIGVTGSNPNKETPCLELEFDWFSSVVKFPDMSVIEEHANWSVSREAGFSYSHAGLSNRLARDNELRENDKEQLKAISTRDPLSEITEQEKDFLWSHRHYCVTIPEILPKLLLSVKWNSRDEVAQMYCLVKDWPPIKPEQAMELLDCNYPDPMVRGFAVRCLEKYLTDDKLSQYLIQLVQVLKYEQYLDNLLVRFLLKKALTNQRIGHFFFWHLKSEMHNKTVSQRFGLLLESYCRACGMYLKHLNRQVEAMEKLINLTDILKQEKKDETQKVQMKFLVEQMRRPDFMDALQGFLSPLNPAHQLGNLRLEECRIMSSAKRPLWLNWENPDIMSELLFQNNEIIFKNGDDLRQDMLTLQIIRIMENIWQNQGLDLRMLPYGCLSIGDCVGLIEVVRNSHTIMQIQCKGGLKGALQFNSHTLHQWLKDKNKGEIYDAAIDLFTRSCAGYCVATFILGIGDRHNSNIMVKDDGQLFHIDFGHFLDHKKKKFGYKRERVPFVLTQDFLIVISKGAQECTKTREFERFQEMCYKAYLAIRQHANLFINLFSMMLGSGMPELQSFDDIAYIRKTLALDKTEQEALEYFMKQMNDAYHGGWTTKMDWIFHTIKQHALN

[20] = molecular target: Phosphatidylinositol 4,5-bisphosphate 3-kinase catalytic subunit beta isoform (Homo sapiens) (UniProt P42338); test: Binding affinity to wild-type human partial length PIK3CB (P118 to S1070 residues) expressed in mammalian expression system assessed as residual binding level at 1 uM by Kinomescan method relative to control
Sequence of Phosphatidylinositol 4,5-bisphosphate 3-kinase catalytic subunit beta isoform (Homo sapiens) (P42338 whole entry, looked up, the tested form may be a part, canonical isoform): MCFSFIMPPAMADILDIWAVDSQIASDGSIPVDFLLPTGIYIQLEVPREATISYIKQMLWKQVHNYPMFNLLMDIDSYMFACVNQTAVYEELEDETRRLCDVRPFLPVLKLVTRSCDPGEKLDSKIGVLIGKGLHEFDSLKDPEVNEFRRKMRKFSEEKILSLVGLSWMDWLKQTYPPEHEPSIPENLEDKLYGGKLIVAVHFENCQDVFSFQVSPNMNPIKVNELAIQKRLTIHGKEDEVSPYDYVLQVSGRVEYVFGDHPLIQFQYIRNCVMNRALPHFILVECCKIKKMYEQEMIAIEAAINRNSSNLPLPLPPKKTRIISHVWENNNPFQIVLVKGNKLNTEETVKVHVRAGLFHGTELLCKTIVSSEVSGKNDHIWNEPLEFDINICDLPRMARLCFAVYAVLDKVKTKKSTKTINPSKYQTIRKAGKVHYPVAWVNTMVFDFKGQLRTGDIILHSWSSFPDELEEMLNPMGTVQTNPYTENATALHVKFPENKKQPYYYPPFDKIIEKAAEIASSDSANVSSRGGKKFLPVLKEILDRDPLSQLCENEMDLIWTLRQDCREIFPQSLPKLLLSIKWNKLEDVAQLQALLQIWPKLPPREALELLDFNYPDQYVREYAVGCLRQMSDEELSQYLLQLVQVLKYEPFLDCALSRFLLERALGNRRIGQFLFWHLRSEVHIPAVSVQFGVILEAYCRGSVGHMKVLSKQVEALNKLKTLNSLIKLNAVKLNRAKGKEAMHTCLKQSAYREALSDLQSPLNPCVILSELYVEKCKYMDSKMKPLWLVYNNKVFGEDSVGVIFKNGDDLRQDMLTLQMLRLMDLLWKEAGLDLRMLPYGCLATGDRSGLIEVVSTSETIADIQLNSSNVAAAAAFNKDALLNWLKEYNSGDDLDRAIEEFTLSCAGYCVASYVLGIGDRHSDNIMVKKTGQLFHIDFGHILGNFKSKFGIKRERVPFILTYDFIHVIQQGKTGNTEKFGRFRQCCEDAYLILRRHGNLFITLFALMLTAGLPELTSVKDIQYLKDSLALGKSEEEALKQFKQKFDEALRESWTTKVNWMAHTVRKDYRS

[21] = molecular target: Phosphatidylinositol 4,5-bisphosphate 3-kinase catalytic subunit gamma isoform (Homo sapiens) (UniProt P48736); test: Binding affinity to wild-type human partial length PIK3CG (S144 to A1102 residues) expressed in mammalian expression system assessed as residual binding level at 1 uM by Kinomescan method relative to control
[22] = molecular target: Proto-oncogene tyrosine-protein kinase receptor Ret (Homo sapiens) (UniProt P07949); test: Binding affinity to wild-type human partial length RET (E713 to D1014 residues) expressed in bacterial expression system assessed as residual binding level at 1 uM by Kinomescan method relative to control
[23] = molecular target: Serine/threonine-protein kinase TAO2 (Homo sapiens) (UniProt Q9UL54); test: Binding affinity to wild-type human partial length TAOK2 (M1 to A320 residues) expressed in mammalian expression system assessed as residual binding level at 1 uM by Kinomescan method relative to control
[24] = molecular target: Serine/threonine-protein kinase 32C (Homo sapiens) (UniProt Q86UX6); test: Binding affinity to wild-type human partial length YANK3 (M68 to G486 residues) expressed in bacterial expression system assessed as residual binding level at 1 uM by Kinomescan method relative to control

`CC(C)Nc1sc(C(=O)c2ccc(Cl)s2)c(N)c1C#N` showed an Activity [1] of 93%, an Activity [2] of 100% and an Activity [3] of 92%. It also gave an Activity [4] of 79%, an Activity [5] of 88% and an Activity [6] of 100%. The Activity [7] was 76%, the Activity [8] was 100% and the Activity [9] was 100%. The Activity [10] was 100%, the Activity [11] was 86% and the Activity [12] was 100%. For the same compound, the Activity [13] was 87%, the Activity [14] was 65% and the Activity [15] was 73%. For the same compound, the Activity [16] was 100%, the Activity [17] was 98% and the Activity [18] was 76%. For the same compound, the Activity [19] was 100%, the Activity [20] was 90% and the Activity [21] was 100%. For the same compound, the Activity [22] was 97%, the Activity [23] was 100% and the Activity [24] was 82%.
